Reference: US20130309238A1, “SIGNAL TRANSDUCTION PATHWAY MODULATION” (NEWCASTLE INNOVATION LIMITED, priority 2010, published 2013)

What was measured:
HDM-allergic mice [1] = test: AHR measurement in house dust mite (HDM)-induced allergic airways disease; assay type: in vivo, BALB/c mice; conditions: HDM-sensitized and challenged mice; treatment during allergen challenge
Description: Mice were sensitized and challenged by exposing them intranasally to house dust mite (HDM) (50 mcg daily at day 0, 1, and 2 followed by 5×5 mcg daily from day 14 to day 17 delivered in 50 μl of sterile saline). The single dose of HDM employed in initial studies was 50 mcg/50 μl of sterile saline. Non-sensitized mice received sterile saline only.
AHR was assessed invasively in separate groups of anesthetized mice by measurement of total lung resistance and dynamic compliance. Percentage increase over baseline (water) in response to nebulised methacholine was calculated.
(§1) Specifically, allergic mice were treated with a commercially available (Ambion) in-vitro validated small interfering (si)RNA directed against Midline-1 (SEQ ID NO:3) (MID1 siRNA) or a scrambled nonsense siRNA (control) following previously established protocols. BALB/c mice were anesthetised with isoflurane before being sensitised with the intranasal administration of either 50 μg House Dust Mite antigen (HDM) in 50 μl of sterile saline or 50 μl of sterile saline in control groups. This sensitisation was repeated at days 1 and 2 following initial sensitisation. On day 14 following initial sensitisation the mice were again anesthetised with isoflurane before receiving intranasal challenge with 5 μg of HDM in […] of sterile water. This challenge dosage was repeated daily from day 14 through 17. Mice received intranasal administration of maked Mid-1 siRNA or scramble control in 25 μl of saline under isoflurane anaesthesia on days 13, 15 and 17, through the period of HDM challenge. On day 18, 24 hrs after the final HDM challenge, the mice were sacrificed with an excess dose of sodium pentobarbitone administered intraperitoneally (200 μl total volume).

HDM-allergic mice [2] = test: Airway inflammation, mucus-producing cells and BALF cells in HDM-induced allergic airways disease; assay type: in vivo, BALB/c mice
Description: as §1, with “Mice were sensitized and challenged by exposing them intranasally to house dust mite (HDM) (50 mcg daily at day 0, 1, and 2 followed by 5×5 mcg daily from day 14 to day 17 delivered in 50 μl of sterile saline). The single dose of HDM employed in initial studies was 50 mcg/50 μl of sterile saline. Non-sensitized mice received sterile saline only. Lung tissue was stained, cells identified by morphological criteria, and quantitated by counting ten high power fields (HPFs) in each slide. […] Specifically,” for “Specifically,”

[3] = tested on: peribronchial lymph node cells; test: Cytokine release from in-vitro HDM-stimulated peribronchial lymph node cells; assay type: in vivo, BALB/c mice; conditions: HDM-sensitized and challenged mice
Description: Peribronchial lymph node cells were excised, filtered, and cultured in the presence or absence of 50 mcg/ml HDM (optimal concentration) for 6 days. IL-13, IL-5, and IFN-γ were determined by ELISA (BD Biosciences Pharmingen).

CCL20 = CCL20 expression/release in airway wall or lung homogenates of HDM-allergic mice; assay type: in vivo, BALB/c mice; conditions: HDM-sensitized and challenged mice
Description: Total RNA was isolated with mirVana m/miRNA Isolation kit (Ambion) from lower airway tissue that was separated by blunt dissection allowing effective separation of the airway wall from the parenchyma (Mattes, 2009). quantitative RT-PCR (qRT-PCR) was performed with SYBR® Green (Invitrogen) using an Eppendorf […] (threshold cycle) quantification was performed using Eppendorf Realplex analysis software 2.2. Mouse mRNA expression was normalised to HPRT, human mRNA to GAPDH. Fold change was calculated using delta delta CT values relative to control groups.

PP2A [4] = biological target: PP2A (Mus musculus, UniProt P63330); conditions: HDM-allergic mice, daily intranasal treatment
Description: PP2a activity was measured by R&D Systems PP2A DuoSet IC activity assay kit according to the manufacturer's instructions. This was performed on homogenized mouse lungs and harvested BEAS-2B cells.

PP2A [5] = biological target: T1, PP2A (Homo sapiens, UniProt P67775); test: PP2A activity in HDM-stimulated human bronchial epithelial cells (BEAS-2B); assay type: cell-based; conditions: BEAS-2B + crude HDM extract, 24 hours; salbutamol 0.1, 1, 10 μM; mitoxantrone analogue 1, 5, 25 μg/ml; AAL(s) 0.5, 2 μM
T1 construct: endogenous in cells; host or cells: BEAS-2B
Description: • Activation of PP2A The inventors have examined the ability of known PP2A agonists to influence PP2A activity in human bronchial epithelial cells stimulated with crude house dust mite extract. Immortalised human bronchial epithelial cells (BEAS-2B) were seeded at 1×10^5 cells/well in 12-well tissue culture plates and allowed to reach 80% confluency. Cells were then treated with either salbutamol, a mitoxantrone analogue, or AAL(s), at a range of tolerable concentrations (0.1, 1 and 10 μM for salbutamol; 1, 5 and 25 μg/ml for the nitoxantrone analaogue; and 0.5 and 2 μM for AAL(s)). Simultaneously, cells were stimulated with crude House Dust Mite (HDM) extract and left for 24 hours. Cells were then collected, washed, lysed, and PP2A activity assayed (R&D Systems), measuring phosphatase activity when fed a synthetic substrate. PP2A activity was reduced upon HDM stimulation compared to the non-stimulated media only group (representing physiologically normal activity levels).

[6] = tested on: ovalbumin-challenged mice; conditions: OVA 3x a week for 3 months, AAL(S) daily
Source text: (§2) The inventors then determined the ability of AAL(S) to protect against airway fibrosis in two mouse models, a chronic ovalbumin model of allergic airways disease and an acute bleomycin-induced fibrosis model.
Mice received ovalbumin (OVA)+alumn IP at day 0 and 2 weeks. Mice then received OVA 3× a week for 3 months. AAL treated mice received AAL(S) daily throughout the 3 month challenge period.

bleomycin-treated mice = conditions: bleomycin intratracheally, sacrificed after 23 days; AAL(S) daily
Source text: as §2
In the bleomycin model, mice received bleomycin intratracheally and were sacrificed after 23 days. AAL(S) treated mice received AAL(S) daily post bleomycin administration.

[7] = tested on: sphingosine-1-phosphate receptors; conditions: Don et al., 2007; cited from earlier work
sphingosine kinase 2 = sphingosine kinase 2 (Homo sapiens, UniProt Q9NRA0); conditions: Don et al., 2007; cited from earlier work
[8] = in vivo; cited from earlier work
[9] = HDM-allergic and challenged mice

T1 sequence (P67775 whole entry): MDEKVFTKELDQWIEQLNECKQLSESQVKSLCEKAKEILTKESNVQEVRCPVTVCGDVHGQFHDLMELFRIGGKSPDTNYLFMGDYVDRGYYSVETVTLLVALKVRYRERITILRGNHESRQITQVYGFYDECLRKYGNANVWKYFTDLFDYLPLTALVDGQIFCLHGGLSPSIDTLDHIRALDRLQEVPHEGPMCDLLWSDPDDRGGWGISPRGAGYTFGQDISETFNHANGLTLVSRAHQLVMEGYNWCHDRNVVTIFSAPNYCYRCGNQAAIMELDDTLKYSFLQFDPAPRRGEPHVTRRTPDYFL
T1 sequence (P30153 whole entry partner): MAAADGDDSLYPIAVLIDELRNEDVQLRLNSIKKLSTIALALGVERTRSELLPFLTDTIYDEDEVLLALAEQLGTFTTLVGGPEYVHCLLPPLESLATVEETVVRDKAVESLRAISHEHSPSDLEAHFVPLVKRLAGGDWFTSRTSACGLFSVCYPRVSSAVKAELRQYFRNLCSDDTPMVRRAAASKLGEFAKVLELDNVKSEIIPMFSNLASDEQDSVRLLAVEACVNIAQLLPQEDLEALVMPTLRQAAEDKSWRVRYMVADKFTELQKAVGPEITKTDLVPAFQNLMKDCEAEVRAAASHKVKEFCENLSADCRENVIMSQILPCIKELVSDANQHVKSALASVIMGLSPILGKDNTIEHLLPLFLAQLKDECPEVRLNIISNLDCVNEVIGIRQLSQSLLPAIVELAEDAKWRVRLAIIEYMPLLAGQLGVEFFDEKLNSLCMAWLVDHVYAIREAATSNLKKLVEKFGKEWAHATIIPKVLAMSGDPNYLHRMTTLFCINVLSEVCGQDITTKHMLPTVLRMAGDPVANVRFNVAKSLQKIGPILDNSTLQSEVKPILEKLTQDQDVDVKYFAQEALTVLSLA
Chain of PP2A (Mus musculus, UniProt P63330) (P63330 whole entry): as the sequence (P67775 whole entry) above, with V5L counted along it
Chain of PP2A (Mus musculus, UniProt P63330) (Q76MZ3 whole entry partner): as the sequence (P30153 whole entry partner) above, with S324T counted along it
Chain of sphingosine kinase 2 (Q9NRA0 whole entry, species assumed): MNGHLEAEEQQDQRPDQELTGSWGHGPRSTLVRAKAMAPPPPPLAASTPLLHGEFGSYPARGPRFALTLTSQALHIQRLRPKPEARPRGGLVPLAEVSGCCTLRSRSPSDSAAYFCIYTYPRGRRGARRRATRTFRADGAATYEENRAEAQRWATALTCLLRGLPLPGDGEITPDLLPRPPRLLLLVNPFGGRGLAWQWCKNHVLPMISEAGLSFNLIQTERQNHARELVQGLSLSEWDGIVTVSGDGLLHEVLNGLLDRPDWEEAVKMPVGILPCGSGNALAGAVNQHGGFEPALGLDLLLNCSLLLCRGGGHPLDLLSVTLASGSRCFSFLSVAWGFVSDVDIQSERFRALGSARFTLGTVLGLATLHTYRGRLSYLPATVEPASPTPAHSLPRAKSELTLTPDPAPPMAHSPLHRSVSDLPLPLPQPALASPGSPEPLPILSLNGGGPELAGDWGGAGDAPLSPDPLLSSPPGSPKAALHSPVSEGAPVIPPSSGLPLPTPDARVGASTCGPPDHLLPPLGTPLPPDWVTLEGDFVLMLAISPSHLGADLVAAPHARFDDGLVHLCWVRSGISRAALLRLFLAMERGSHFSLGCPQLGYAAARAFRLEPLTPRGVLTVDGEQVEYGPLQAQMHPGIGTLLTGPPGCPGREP

Compound | airways hyperresponsiveness (total lung resistance in response to inhaled methacholine) (HDM-allergic mice [1]) | airways inflammation (HDM-allergic mice [2]; HDM-sensitized and challenged mice, treatment during allergen challenge) | Th2 cytokine release in allergen-stimulated peribronchial lymphnode cultures [3] | CCL20 release (levels in lung homogenates) (CCL20) | PP2A activity in the lungs (PP2A [4]) | PP2A activity (phosphatase activity on synthetic substrate) (PP2A [5]) | lung function (forced vital capacity and forced expiratory volume in 100 milliseconds) [6] | airways fibrosis (collagen deposition surrounding the airways) ([6]; wildtype BALB/c mice) | collagen deposition in airways (bleomycin-treated mice) | binding to sphingosine-1-phosphate receptors [7] | phosphorylation by sphingosine kinase 2 (sphingosine kinase 2) | lymphopenia [8] | eosinophils (BALF) (HDM-allergic mice [2]; [9]) | lymphocytes (BALF) (HDM-allergic mice [2]; [9]) | neutrophils (BALF) (HDM-allergic mice [2]; [9])
CCCCCCCOc1ccc(CCC(C)(N)CO)cc1 [AAL(S), 2-amino-4-(4-heptyloyphenol)-2-methylbutanol] | precluded the development | precluded the development | reduced | reduced | reactivates PP2A in the lungs | fully restored | improved | protected | protected | does not bind | cannot be phosphorylated | does not cause lymphopenia | – | – | –
CCCCCCCCc1ccc(CCC(N)(CO)CO)cc1 [FTY720] | reduced | – | – | reduced | – | – | – | – | – | – | – | – | reduced | reduced | reduced
CCCCCCCCc1ccc(CCC(N)(CO)COP(=O)(O)O)cc1 (stereo not drawn) [pFTY720] | partial reduction | – | – | – | – | – | – | – | – | – | – | – | partial reduction | – | partial reduction
CC(C)(C)NCC(O)c1ccc(O)c(CO)c1 (stereo not drawn) [salbutamol] | – | – | – | – | – | restore PP2A activity to a significant level | – | – | – | – | – | – | – | – | –
